# Source: patent US20220127297A1, “Novel Antibacterial 3"-Derivatives Of 4,6-Disubstituted 2,5-Dideoxystreptamine Aminoglycoside Antibiotics” (AGILeBiotics B.V., priority 2018, published 2022)
# Test system: E. coli (APH(3′)Ia)
# Test: MIC 50, broth micro-dilution, E. coli expressing APH(3′)Ia
# Assay type: cell-based, Escherichia coli
# Conditions: ATCC25922 harboring plasmid encoding APH(3′)Ia
# Summary of the method: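 Cultures of transformed E. coli ATCC 25922 were grown under 50 μg/mL KanaA to OD 0.6-0.8, then diluted to OD 0.1. They were mixed with compound in MH2 (final 64 μM-31.3 nM) and shaken 18 h at 37° C, 70% rH. Growth was measured at 600 nm.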
row,Structure (SMILES),MIC50 [µM]
1,"NCC[C@H](O)C(=O)N[C@@H]1C[C@H](N)[C@@H](O[C@H]2O[C@H](CN)[C@@H](O)[C@@H](O)[C@H]2O)[C@H](O)[C@H]1O[C@H]1O[C@H](CO)[C@@H](O)[C@H](N)[C@H]1O [ABX3002, 3′Epi-KanaA-AHB]",32
2,"NCC[C@H](O)C(=O)N[C@@H]1CC(N)[C@@H](O[C@H]2OC(CN)[C@@H](O)CC2N)[C@H](O)C1OC1O[C@H](CO)[C@@H](O)C(N)[C@H]1O (some centres unmarked) [ABX5004, Tobra-AHB]",4 to 8
3,"NCCC(O)C(=O)NC1CC(N)C(OC2OC(CN)C(O)C(O)C2N)C(F)C1OC1OC(CO)C(O)C(N)C1O (centres unmarked) [ABX4007, KanaB-AHB-F]",4

# Same assay, conditions: Escherichia coli, ATCC25922, ATCC25922 harboring plasmid encoding APH(3′)Ia
row,Structure (SMILES),MIC50 [µM]
1,"N=C(NCc1cnc[nH]1)NC1[C@@H](O)C(OC2[C@@H](F)[C@H](O[C@H]3OC(CN)[C@@H](O)CC3N)C(N)C[C@H]2NC(=O)[C@@H](O)CCN)O[C@H](CO)[C@H]1O (some centres unmarked) [ABX5050, Tobra-AHB-F-Gua imidazol-5-yl methyl]",2
2,"N=C(NCc1ccncc1)NC1[C@@H](O)C(OC2[C@@H](F)[C@H](O[C@H]3OC(CN)[C@@H](O)CC3N)C(N)C[C@H]2NC(=O)[C@@H](O)CCN)O[C@H](CO)[C@H]1O (some centres unmarked) [ABX5048, Tobra-AHB-F-Gua pyridin-4-yl methyl]",1
3,"N=C(N)NC1[C@@H](O)C(OC2[C@@H](F)[C@H](O[C@H]3OC(CN)[C@@H](O)[C@H](O)C3O)C(N)C[C@H]2NC(=O)[C@@H](O)CCN)O[C@H](CO)[C@H]1O (stereo partly drawn) [ABX3003, 3′epi-KanaA-AHB-F-Gua]",8
4,"NCC[C@H](O)C(=O)N[C@@H]1C[C@H](N)[C@@H](O[C@H]2O[C@H](CN)[C@@H](O)[C@H](O)[C@H]2O)[C@H](O)[C@H]1O[C@H]1O[C@H](CO)[C@@H](O)[C@H](N)[C@H]1O [Amikacin, amikacin, reference compound]",8
5,"N=C(N)NC1[C@@H](O)C(OC2[C@@H](F)[C@H](O[C@H]3OC(CNCCO)[C@@H](O)CC3N)C(N)C[C@H]2NC(=O)[C@@H](O)CCN)O[C@H](CO)[C@H]1O (some centres unmarked) [ABX5045, 6N-2-hydroxy-ethyl-Tobra-AHB-F-Gua]",1
